Assay [1] relates to KMS-4 cells. As to the kind of experiment: Cell proliferation-inhibiting activity (BrdU incorporation, Amersham Cell Proliferation Detection Kit). It is filed as cell-based. The note with it: 17 hours with peptide, BrdU-stained cells. The method, then:
The following procedure was carried out with an Amersham Cell Proliferation Detection Kit. First, cells [KMS-4; M. Nanba et al., International Journal of Cancer, 32, 697 (1983)] were suspended in a DMEM culture medium (product of Nissui Seiyaku) containing 10% fetal calf serum to a concentration of 1-2×10^4 cells/ml, and 1 ml of the above-mentioned cell suspension was put into each well of a 24-well plate (product of Corning Co.). The cells were cultured for 2 days in a CO2 incubator (37° C., 5% CO2). Next, the culture medium was exchanged with a DMEM medium containing 10% fetal calf serum, and then the test peptide was added thereto and culturing was carried out for 17 hours. The culture medium was again exchanged with a serum-free DMEM medium, 0.5 ml of a solution of the reagents labelled 5-bromo-2'-deoxyuridine (BrdU) and 5-fluoro-2'-deoxyuridine (FdU) [10:1] diluted 1000-fold with the same medium was added to each well, and cultured for 2 hours. The culture medium was removed, and the cells were immobilized with an acetic acid/ethanol solution. The immobilized cells were stained according to the method for the Amersham Cell Proliferation Kit, and then further stained with a 1% Giemsa solution (product of Merck Co.). The number of cells incorporating BrdU and the total cell count within 1 field of vision of the microscope (approximately 200 cells) were determined, and the proportion (%) of stained cells per field of vision was calculated. Furthermore, the same procedure was repeated 10 times, and the average value thereof was defined as the cell proliferation activity (%). The cell proliferation-inhibiting activity was calculated in the following manner. The proliferation activity without addition of peptide was defined as "A", the proliferation activity with addition of the test peptide was defined as "B", and the cell proliferation inhibition rate (X) was determined according to the following equation. X (%)=[…]
(In general: Dividing cells build labelled thymidine or BrdU into new DNA.)

Assay [2] has as its target T1, PLC-γ1 (Bos taurus, UniProt P08487).
T1 construct: A sample (PLC-γ1) was prepared from bovine thymus according to the method of Y. Homma et al; from tissue; host or cells: bovine thymus
T1 sequence (P08487 1-1291): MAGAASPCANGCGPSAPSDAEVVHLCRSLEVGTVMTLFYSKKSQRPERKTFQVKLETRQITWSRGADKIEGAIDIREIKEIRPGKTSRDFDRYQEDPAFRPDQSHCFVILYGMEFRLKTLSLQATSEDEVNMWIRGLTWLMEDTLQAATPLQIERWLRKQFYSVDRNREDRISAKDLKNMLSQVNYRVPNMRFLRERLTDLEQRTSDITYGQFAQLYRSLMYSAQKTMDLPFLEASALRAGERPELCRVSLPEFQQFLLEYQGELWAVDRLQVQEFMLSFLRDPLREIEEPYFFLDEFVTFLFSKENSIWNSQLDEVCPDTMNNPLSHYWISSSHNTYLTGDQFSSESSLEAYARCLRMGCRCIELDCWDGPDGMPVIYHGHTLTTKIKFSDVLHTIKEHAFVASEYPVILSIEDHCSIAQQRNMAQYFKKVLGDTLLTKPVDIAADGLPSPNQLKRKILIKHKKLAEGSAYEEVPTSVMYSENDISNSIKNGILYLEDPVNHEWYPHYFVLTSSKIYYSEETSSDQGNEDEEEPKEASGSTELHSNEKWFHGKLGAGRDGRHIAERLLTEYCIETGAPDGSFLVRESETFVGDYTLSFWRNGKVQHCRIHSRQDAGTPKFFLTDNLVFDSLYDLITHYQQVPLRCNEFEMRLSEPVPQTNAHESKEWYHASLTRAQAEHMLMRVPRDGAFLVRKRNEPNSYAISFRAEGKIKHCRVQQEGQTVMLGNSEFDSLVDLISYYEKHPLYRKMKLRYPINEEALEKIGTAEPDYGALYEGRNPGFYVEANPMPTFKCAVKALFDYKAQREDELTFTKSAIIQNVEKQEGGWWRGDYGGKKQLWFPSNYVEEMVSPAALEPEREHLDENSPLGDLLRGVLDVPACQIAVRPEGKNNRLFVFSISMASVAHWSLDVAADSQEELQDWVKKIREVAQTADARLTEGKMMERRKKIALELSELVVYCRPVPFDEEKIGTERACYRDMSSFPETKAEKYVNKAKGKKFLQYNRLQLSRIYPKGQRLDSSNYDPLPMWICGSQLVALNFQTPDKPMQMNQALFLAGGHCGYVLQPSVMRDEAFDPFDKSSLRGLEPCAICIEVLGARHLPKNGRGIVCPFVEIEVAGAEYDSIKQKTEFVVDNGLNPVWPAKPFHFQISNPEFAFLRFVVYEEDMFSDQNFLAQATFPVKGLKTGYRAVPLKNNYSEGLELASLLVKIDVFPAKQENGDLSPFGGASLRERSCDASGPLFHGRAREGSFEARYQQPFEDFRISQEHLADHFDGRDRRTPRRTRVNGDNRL
Briefly: PLC-inhibiting activity (release of [3H]inositol phosphate from [3H]PIP2). It counts as biochemical, bovine. The note with it: PI-PLC-γ1, 37° C., 10 minutes. The procedure: A sample (PLC-γ1) was prepared from bovine thymus according to the method of Y. Homma et al. described in Biochemical Journal [(Biochem. J.), 269, 13 (1990)]. A solution having the composition listed in Table 1 below was prepared in advance on the ice and the reaction was begun with heating to 37° C. After incubation for 10 minutes, 2 ml of a solution mixture of chloroform/methanol (2:[…]) was added thereto to stop the reaction. The resulting inositol phosphate was extracted with 0.5 ml of 1N hydrochloric acid. Two-phase distribution was carried out by centrifugation (2000×g, 3 minutes), and the amount of ^3 H contained in 0.7 ml of the supernatant was measured with scintillation counter. […] The obtained value of specific radioactivity was defined as "A", the value of specific radioactivity obtained when an equivalent amount of water was added instead of the aqueous solution of the test peptide was defined as "B", the value of specific radioactivity obtained when an equivalent amount of water was added instead of the sample and the aqueous solution of the test peptide was defined as "C", and the inhibition rate (X) was determined according to the following equation. X(%)=[…]

Setting [3] is: Concentration 120 μM (aqueous solution of test peptide), read-out: Inhibition rate (%).

Peptide text beside a SMILES is read from it. * marks the point of attachment. Benzoyl(2,5-(OH)2) = O=C(c1cc(O)ccc1O)*; Cyclohexylacetyl = O=C(CC1CCCCC1)*; Cyclopentylacetyl = O=C(CC1CCCC1)*; Cyclopropanecarbonyl = O=C(C1CC1)*; Nonanoyl = CCCCCCCCC(=O)*; X2 = O=C(c1ccc(=O)oc1)*; Butyryl = CCCC(=O)*

In the case of `CSCC[C@H](NC(=O)[C@H](CCCCN)NC(=O)[C@H](CCCNC(=N)N)NC(=O)[C@H](Cc1ccc(O)cc1)NC(=O)[C@H](CC(C)C)NC(=O)c1cc(O)ccc1O)C(=O)N[C@@H](CCCNC(=N)N)C(=O)N[C@@H](CC(C)C)C(=O)N[C@@H](CCCNC(=N)N)C(=O)N[C@@H](Cc1ccc(O)cc1)C(=O)N1CCC[C@H]1C(=O)N[C@H](C(N)=O)C(C)C` [(I-15), (HO)2 C6 H3 CO-Leu-Tyr-Arg-Lys-Met-Arg-Leu-Arg-Tyr-Pro-Val-NH2] ({Benzoyl(2,5-(OH)2)}-LYRKMRLRYPV-NH2), in assay [1] (Concentration 31 μM), the “Cell proliferation inhibition rate (%)” value is reported as 66%. The inhibition at 120 µM (stock) in assay [2] (setting [3]) was 41%.

Turning to `CSCC[C@H](NC(=O)[C@H](CCCCN)NC(=O)[C@H](CCCNC(=N)N)NC(=O)[C@H](Cc1ccc(O)cc1)NC(=O)[C@H](CC(C)C)NC(=O)CC1CCCCC1)C(=O)N[C@@H](CCCNC(=N)N)C(=O)N[C@@H](CC(C)C)C(=O)N[C@@H](CCCNC(=N)N)C(=O)N[C@@H](Cc1ccc(O)cc1)C(=O)N1CCC[C@H]1C(=O)N[C@H](C(N)=O)C(C)C` [(I-25), C6 H11 CH2 CO-Leu-Tyr-Arg-Lys-Met-Arg-Leu-Arg-Tyr-Pro-Val-NH2] (Cyclohexylacetyl-LYRKMRLRYPV-NH2), in assay [1] (Concentration 31 μM), the “Cell proliferation inhibition rate (%)” value amounted to 75%. For the same compound, the inhibition at 120 µM (stock) in assay [2] (setting [3]) turned out to be 50%. Take “n-C3 H7 CO-Leu-Tyr-Arg-Lys-Met-Arg-Leu-Arg-Tyr-Pro-Val-NH2 (Butyryl-LYRKMRLRYPV-NH2; SMILES CCCC(=O)N[C@@H](CC(C)C)C(=O)N[C@@H](Cc1ccc(O)cc1)C(=O)N[C@@H](CCCNC(=N)N)C(=O)N[C@@H](CCCCN)C(=O)N[C@@H](CCSC)C(=O)N[C@@H](CCCNC(=N)N)C(=O)N[C@@H](CC(C)C)C(=O)N[C@@H](CCCNC(=N)N)C(=O)N[C@@H](Cc1ccc(O)cc1)C(=O)N1CCC[C@H]1C(=O)N[C@H](C(N)=O)C(C)C) [Compound (I-11)]”: the results for the “Cell proliferation inhibition rate (%)” value in assay [1] (Concentration 1 μM) and in assay [1] (Concentration 32 μM) were 86% and 84%, respectively. In addition, the “Inhibition rate (%)” value in assay [2] (Concentration 130 μM (aqueous solution of test peptide)) was 31%.

Regarding “H-SLVELVSYYEKHALYRKMRLRYPV-OH [Compound (I-1)]”, the inhibition at 15 µM (stock) in assay [2] (Concentration 15 μM (aqueous solution of test peptide), read-out: Inhibition rate (%)) was determined as 55%. Further, the inhibition at 55 µM (stock) in assay [2] (Concentration 55 μM (aqueous solution of test peptide), read-out: Inhibition rate (%)) is 88%. On to `CSCC[C@H](NC(=O)[C@H](CCCCN)NC(=O)[C@H](CCCNC(=N)N)NC(=O)[C@H](Cc1ccc(O)cc1)NC(=O)[C@H](CC(C)C)NC(=O)c1ccc(=O)oc1)C(=O)N[C@@H](CCCNC(=N)N)C(=O)N[C@@H](CC(C)C)C(=O)N[C@@H](CCCNC(=N)N)C(=O)N[C@@H](Cc1ccc(O)cc1)C(=O)N1CCC[C@H]1C(=O)N[C@H](C(N)=O)C(C)C` [(I-12), C5 H3 O2 CO-Leu-Tyr-Arg-Lys-Met-Arg-Leu-Arg-Tyr-Pro-Val-NH2] (X2-LYRKMRLRYPV-NH2), for which, in assay [1] (Concentration 31 μM), the “Cell proliferation inhibition rate (%)” value is on record as 69%. Besides, the inhibition at 120 µM (stock) in assay [2] (setting [3]) was 40%.

In the case of “H-Leu-Tyr-Arg-Lys-Met-Arg-Leu-Arg-Tyr-Pro-Val-OH (H-LYRKMRLRYPV-OH) [Compound (I-5)]”, in assay [2] (Concentration 125 μM (aqueous solution of test peptide)), the “Inhibition rate (%)” value stood at 70%. With `CSCC[C@H](NC(=O)[C@H](CCCCN)NC(=O)[C@H](CCCNC(=N)N)NC(=O)[C@H](Cc1ccc(O)cc1)NC(=O)[C@H](CC(C)C)NC(=O)C1CC1)C(=O)N[C@@H](CCCNC(=N)N)C(=O)N[C@@H](CC(C)C)C(=O)N[C@@H](CCCNC(=N)N)C(=O)N[C@@H](Cc1ccc(O)cc1)C(=O)N1CCC[C@H]1C(=O)N[C@H](C(N)=O)C(C)C` [(I-24), C3 H5 CO-Leu-Tyr-Arg-Lys-Met-Arg-Leu-Arg-Tyr-Pro-Val-NH2] (Cyclopropanecarbonyl-LYRKMRLRYPV-NH2), the “Cell proliferation inhibition rate (%)” value in assay [1] (Concentration 32 μM) is recorded as 66%. Further, in assay [2] (setting [3]), the inhibition at 120 µM (stock) came to 55%.

For the compound `CCCCCCCCC(=O)N[C@@H](CC(C)C)C(=O)N[C@@H](Cc1ccc(O)cc1)C(=O)N[C@@H](CCCNC(=N)N)C(=O)N[C@@H](CCCCN)C(=O)N[C@@H](CCSC)C(=O)N[C@@H](CCCNC(=N)N)C(=O)N[C@@H](CC(C)C)C(=O)N[C@@H](CCCNC(=N)N)C(=O)N[C@@H](Cc1ccc(O)cc1)C(=O)N1CCC[C@H]1C(=O)N[C@H](C(N)=O)C(C)C` [(I-28), CH3 (CH2)7 CO-Leu-Tyr-Arg-Lys-Met-Arg-Leu-Arg-Tyr-Pro-Val-NH2] (Nonanoyl-LYRKMRLRYPV-NH2), in assay [1] (Concentration 31 μM), the “Cell proliferation inhibition rate (%)” value amounted to 22%. In assay [2] (setting [3]), the inhibition at 120 µM (stock) was 78%. Regarding `CSCC[C@H](NC(=O)[C@H](CCCCN)NC(=O)[C@H](CCCNC(=N)N)NC(=O)[C@H](Cc1ccc(O)cc1)NC(=O)[C@H](CC(C)C)NC(=O)CC1CCCC1)C(=O)N[C@@H](CCCNC(=N)N)C(=O)N[C@@H](CC(C)C)C(=O)N[C@@H](CCCNC(=N)N)C(=O)N[C@@H](Cc1ccc(O)cc1)C(=O)N1CCC[C@H]1C(=O)N[C@H](C(N)=O)C(C)C` [(I-17), C5 H9 CH2 CO-Leu-Tyr-Arg-Lys-Met-Arg-Leu-Arg-Tyr-Pro-Val-NH2] (Cyclopentylacetyl-LYRKMRLRYPV-NH2), the “Cell proliferation inhibition rate (%)” value in assay [1] (Concentration 31 μM) worked out at 72%. Further, the inhibition at 120 µM (stock) in assay [2] (setting [3]) was 53%. “H-YRKMRLRY-OH [Compound (I-7), H-Tyr-Arg-Lys-Met-Arg-Leu-Arg-Tyr-OH]”: the inhibition at 120 µM (stock) in assay [2] (setting [3]) turned out to be 70%. With “H-Ser-Leu-Val-Glu-Leu-Val-Ser-Tyr-Tyr-Glu-Lys-His-Ala-OH (H-SLVELVSYYEKHA-OH) [Compound (I-6)]”, in assay [2] (Concentration 105 μM (aqueous solution of test peptide)), the “Inhibition rate (%)” value is 70%. In the case of “H-Glu-Lys-His-Ala-Leu-Tyr-Arg-Lys-Met -Arg-Leu-Arg-Tyr-Pro-Val-OH (H-EKHALYRKMRLRYPV-OH) [Compound (I-4)]”, the “Inhibition rate (%)” value in assay [2] (Concentration 120 μM (aqueous solution of test peptide)) was 73%.

What is called inhibition is the change of the read-out against control, counted positive when it falls.

The values are drawn from patent US5580956A, “Phospholipase C-inhibiting peptides” (priority 1992, dated 1996).
